pEC50: −log10 of the molar value.
Tests used:
[1] = test system: guinea-pig isolated tracheal smooth muscles; experiment: Relaxant action on guinea-pig isolated tracheal chain contracted by histamine; conditions: for pEC50: Cavia porcellus, contracted by 10^-4 M histamine, read-out: A: 50% effective amount for the guinea-pig isolated tracheal smooth muscles (50% relaxation); for B/A: selectivity to tracheal smooth muscles: based on reference B/A value 1 for isoproterenol, B from canine femoral artery
Source text: (§1) Reference will now be made to pharmacological effects of the compounds according to the present invention.
(§2) (1) Relaxant action on the guinea-pig isolated tracheal smooth muscles and the vasodilating action on the canine anesthetized femoral arterial preparation were employed to compare the pharmacological effects of each of the compounds.

[2] = test system: canine femoral arterial preparation; experiment: Vasodilating action in the canine anesthetized femoral arterial preparation (close arterial injection); assay type: in vivo
Source text: as §1, §2

β-adrenoceptor = experiment: Relaxant action on guinea-pig isolated trachea in the presence of propranolol (β-adrenoceptor involvement); conditions: histamine 10^-4 M; propranolol 2.5×10^-5 M; FIGS. 1-4
Source text: as §2
Histamine (10^-4 M in the bath medium) was applied to the guinea-pig isolated tracheal preparation to contract the muscles, and the effect of the above compounds to inhibit the contraction (%) was plotted along the ordinate on each of the points for concentration which were connected by a solid line into a curve. Then, the dose-response curve for the compound in the presence of propranolol (2.5×10^-5 M) was obtained and plotted in a dotted line.

[3] = Acute toxicity, intraperitoneal injection in mice; conditions: mouse, in vivo, ip; intraperitoneal injection to mice; read-out: F: Approx. LD50 value
Experimental: Another experiment was also conducted using mice as an index for the acute toxicity to the whole body.
Approx. LD50 value on intraperitoneal injection for mice was determined.

[4] = test system: canine blood-perfused tracheal preparation; experiment: Canine blood-perfused tracheal preparation in situ: intraluminal pressure decrease and perfused-blood flow increase; assay type: in vivo; conditions: for D/C × 10: selectivity: based on reference D/C value 1 for isoproterenol; for C: dose required for 20 cm H2O decrease in the tracheal intraluminal pressure (bronchodilator action) / D: dose required for 5 ml/min increase in the perfused-blood flow (vasodilator action): canine blood-perfused tracheal preparation in situ
Experimental: as §1
The bronchodilator action was represented by a dose (C), μg, of a compound required for decreasing the intraluminal pressure by 20 cm H2 O and the vasodilator action was represented by a dose (D), μg, of the compound required for increasing the perfused-blood flow by 5 ml/min.

Row | Structure (SMILES) | pEC50 [1] | B/A: selectivity to tracheal smooth muscles [1] | B: dose required for 30 ml/min increase in the perfused-blood flow (vasodilator action) [2] [µg] | difference between dose-response curves without and with propranolol (inhibition of histamine contraction) (β-adrenoceptor) | LD50 [3] [mg/kg] | D/C × 10: selectivity [4] | C: dose required for 20 cm H2O decrease in the tracheal intraluminal pressure (bronchodilator action) [4] [µg] | D: dose required for 5 ml/min increase in the perfused-blood flow (vasodilator action) [4] [µg]
1 | CC(CN1CCCCC1)C(=O)c1ccc([S+](C)[O-])cc1 (centres unmarked) [Compound 4, 1-(4-methylsulfinylphenyl)-3-piperidino-2-methylpropanone-1] | 3.52 | 3 | 800 |  |  |  |  | 
2 | CC[S+]([O-])c1ccc(C(=O)C(C)CN2CCCCC2)cc1 (centres unmarked) [Compound 10] | 3.70 | 4 | 700 |  |  |  |  | 
3 | CC(CN1CCCCC1)C(=O)c1ccc(S(C)(=O)=O)cc1 (centres unmarked) [Compound 16, 1-(4-methylsulfonylphenyl)-3-piperidino-2-methylpropanone-1] | 4.22 | 12 | 750 | no substantial difference |  |  |  | 
4 | CCS(=O)(=O)c1ccc(C(=O)C(C)CN2CCCCC2)cc1 (centres unmarked) [Compound 22, 1-(4-ethylsulfonylphenyl)-3-piperidino-2-methylpropanone-1] | 4.22 | 9 | 580 |  |  |  |  | 
5 | CCSc1ccc(C(=O)C(C)CN2CCOCC2)cc1 (centres unmarked) [Compound 25, 1-(4-ethylthiophenyl)-3-morpholino-2-methylpropanone-1] | 4.00 | 1 | 100 |  | 200 |  |  | 
6 | CCCC[S+]([O-])c1ccc(C(=O)C(C)CN2CCCCC2)cc1 (centres unmarked) [Compound 28, 1-(4-butylsulfinylphenyl)-3-piperidino-2-methylpropanone-1] | 4.22 | 8 | 460 |  |  |  |  | 
7 | CCSc1ccc(C(=O)C(C)CN2CCCCC2)cc1 (centres unmarked) [Compound 29, 1-(4-ethylthiophenyl)-3-piperidino-2-methylpropanone-1] | 5.70 | 90 | 180 | no substantial difference |  | 7 | 109 | 77
8 | CCCCS(=O)(=O)c1ccc(C(=O)C(C)CN2CCCCC2)cc1 (centres unmarked) [Compound 36, 1-(4-butylsulfonylphenyl)-3-piperidino-2-methylpropanone-1] | 4.70 | 18 | 360 |  |  | 3 | 333 | 100
9 | CCSc1ccc(C(=O)C(C)CN2CCCC2)cc1 (centres unmarked) [Compound 37] | 4.52 | 6 | 175 |  | 200 |  |  | 
10 | CC(CN1CCCCC1)C(=O)c1ccc(S(=O)(=O)c2ccccc2)cc1 (centres unmarked) [Compound 42, 1-(4-phenylsulfonylphenyl)-3-piperidino-2-methylpropanone-1] | 4.70 | 9 | 175 |  |  |  |  | 
11 | CSc1ccc(C(=O)C(C)CN(C)C)cc1 (centres unmarked) [Compound 48, 1-(4-methylthiophenyl)-3-dimethylamino-2-methylpropanone-1] | 5.22 | 17 | 100 |  |  |  |  | 
12 | CSc1ccc(C(=O)C(C)CN2CCCC2)cc1 (centres unmarked) [Compound 50] | 5.22 | 7 | 43 |  |  |  |  | 
13 | CSc1ccc(C(=O)C(C)CN2CCCCC2)cc1 (centres unmarked) [Compound 51, 1-(4-methylthiophenyl)-3-piperidino-2-methylpropanone-1] | 5.22 | 40 | 240 | no substantial difference |  | 8 | 62.5 | 50
14 | CSc1ccc(C(=O)C(C)CN2CCN(C)CC2)cc1 (centres unmarked) [Compound 53] | 3.70 | 2 | 430 |  |  |  |  | 
15 | CCSc1ccc(C(=O)C(C)CN(C)C)cc1 (centres unmarked) [Compound 54] | 4.22 | 6 | 350 |  | 200 |  |  | 
16 | CCSc1ccc(C(=O)C(C)CN(CC)CC)cc1 (centres unmarked) [Compound 55] | 4.22 | 5 | 270 |  | 200 |  |  | 
17 | CC(C)NCC(O)c1ccc(O)c(O)c1 (centres unmarked) [isoproterenol, reference compound] | 8.30 |  | 0.0053 |  |  |  | 0.1 | 0.01
18 | CC(C)(C)NCC(O)c1ccc(O)c(CO)c1 (centres unmarked) [salbutamol] |  |  |  |  |  | 2 | 2 | 0.4
19 | CC(C)(C)NCC(O)c1cc(O)cc(O)c1 (centres unmarked) [terbutaline] |  |  |  |  |  | 4 | 0.5 | 0.2
20 | COc1cc(CC2NCCc3cc(O)c(O)cc32)cc(OC)c1OC (centres unmarked) [trimetoquinol] |  |  |  |  |  | 2.5 | 0.2 | 0.05

From patent publication US4237141A, “Derivatives of α-methyl-β-aminopropiophenone and use thereof” (priority 1977, dated 1980)
